The values below come from PubChem BioAssay (NCI).

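Interpolation was linear, between the two tested concentrations surrounding the appropriate level; five concentrations were tested over 48 hours in 96-well plates. TGI: concentration producing complete growth inhibition.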

Test systems include HL-60(TB) leukemia; COLO 205 colon; SK-OV-3 ovarian; IGROV1 ovarian; 786-0 renal; PC-3 prostate; OVCAR-8 ovarian; A498 renal; OVCAR-4 ovarian; U251 CNS; NCI-H460 lung.
Common to all, as to experiment: NCI tumour cell line growth inhibition, 48 h

As to `CCOC(=O)/C=C(/C)Nc1nc2c(c(C(=O)OC)c1C#N)CCCC2`, the TGI in the experiment on HL-60(TB) leukemia, with COLO 205 colon, with SK-OV-3 ovarian, with IGROV1 ovarian, in the experiment on 786-0 renal and with PC-3 prostate was more than 100 µM in each case. For the same compound, the TGI with OVCAR-8 ovarian, in the experiment with A498 renal, in the experiment on OVCAR-4 ovarian, with U251 CNS and in the experiment on NCI-H460 lung was more than 100 µM throughout.
Regarding `O=C(c1ccccc1)N1C(=S)N(c2ccccn2)C(=Nc2ccccc2)C1=Nc1ccccc1`, the TGI in the experiment with HL-60(TB) leukemia is 14.1 µM; in the experiment on COLO 205 colon, more than 52.7 µM; in the experiment on SK-OV-3 ovarian it was more than 86.6 µM; in the experiment with IGROV1 ovarian, more than 64.1 µM; with 786-0 renal, more than 82.8 µM; with PC-3 prostate, 35.8 µM. Besides, the TGI in the experiment with OVCAR-8 ovarian is more than 100 µM; in the experiment on A498 renal it was more than 100 µM; in the experiment on OVCAR-4 ovarian, 32.5 µM; in the experiment on U251 CNS, 39.6 µM; in the experiment with NCI-H460 lung it was more than 70.6 µM.
